# Results from patent US11331364B2, “Use for JNK inhibitor molecules for treatment of various diseases” (Xigen Inflammation Ltd., priority 2014, dated 2022).
# Square brackets hold non-standard residues; d marks the D form. Peptide text beside a SMILES is read from it.
# How the values were obtained:
# human whole blood = assay: CD3/CD28-induced TNF-α release in human whole blood, 3 days; type: cell-based; settings: 1, 3, 10 μM, antibodies 2 μg/mL
# Procedure: FIG. 24 JNK inhibition and TNF-α release in human whole blood. The JNK inhibitor with SEQ ID NO: 172 was added at three different concentrations, namely 1, 3 and 10 μM 1 h before whole blood stimulation with CD3+/−CD28 antibodies (2 μg/mL) for 3 days.
# Whole blood from human healthy volunteers was collected using a venipuncture connected to a pre-labeled vacuum tube containing sodium citrate. Tubes are gently mixed by inversion 7-8 times; and are then kept at RT until stimulation. 350 μl of RPMI+P/S were added into 1.2 ml-96-well plate. 10 times concentrated of SEQ ID NO: 172 was prepared in RPMI+P/S (50 μl per well). 50 μl was added into 1.2 ml-96 well plates. 50 μl of whole blood was then added in each well where either medium alone or JNK inhibitor has been previously added. Whole blood was incubated at 37° C., 5% CO2 for 60 min. 50 μl/well of ligands diluted in RPMI+P/S was prepared, corresponding to the final dilution 10 times concentrated. After 60 min of incubation, ligand was added; wells were then mixed by pipetting up and down the blood. Whole blood was incubated for 3 days at 37° C. (wells were mixed by pipetting each well up and down once per day). […] Cytokine were then measured using standard Elisa kits. Results are expressed as pg/ml of supernatant of the measured cytokine. […]
# [1] = system: primary mouse cortical neuron cultures; assay: Neuronal apoptosis after Aβ42 stress in WT primary cortical neurons (cleaved PARP, caspase 3); type: cell-based
# Procedure: To this end, primary mouse cortical neuron cultures were exposed to either 2 μM or 25 μM of β-amyloid 1-42 (Aβ42) for 5 hours to induce Aβ42 cell stress. […] Levels of phosphorylated JNK (pJNK), total JNK (JNK), cleaved PARP and Tubulin (control) were determined. The ratio of pJNK/JNK served as a measure of JNK activity. The level of cleaved protein PARP, which is known to increase during apoptosis, served as a measure of neuronal apoptosis.
# To obtain primary cortical neuronal cultures, E15.5 mice embryos were dissected in PBS (Phosphate Buffered Saline) 6% glucose, on ice. Embryos cortices were minced into small pieces and treated with PBS glucose trypsin (Sigma Aldrich, Saint-Louis, USA) for 20 min at 37° C. Dissociated cortical cells were cultured in Neurobasal media complemented with B27, Glutamax and penicillin-streptomycin (Gibco). Neurons were cultured at 37° C., 5% CO2 on pre-coated with poly-L-lysin (Sigma Aldrich) petri dishes. Neurons were cultured to maturity (7 days) before use.
# To induce […] stress 2 μM of Aβ1-42 (Thermo Fisher Scientific, Mass., USA) were used during 5 h on cortical neurons. Aβ42-1 inversed peptide (Thermo Fisher Scientific) was used as negative control. AP 1-42 and Aβ42-1 were dissolved in pure water and incubated at 37° C. for 48 h before use. […]
# For immunoblot analysis cells were lysed on ice in a lysis buffer containing […] NaPi pH 7.8, […] NaCl, 1% Triton, 0.5% DOC, 0.1% SDS, 10% glycerol, 0.1 μM calyculin A, 1 mM Na3VO4 and 1× of a protease inhibitor cocktail (Sigma Aldrich). Lysates were sonicated and centrifugated 10 min at 15000 g at 4° C. The supernatant protein concentration was determined with the Micro BCA protein assay kit (Thermo Scientific). Thirty micrograms of proteins were resolved on SDS-PAGE and transferred onto nitrocellulose membrane. After blocking with TBS 5% skim milk, the membranes were probed with primary antibodies to JNK full, c-Jun, PKR, eIF2α (Santa Cruz, Danvers, USA), pJNK (Millipore, Billerica, USA), phosphor eIF2a (Thermo Fisher Scientific), PARP and tubulin (Cell Signaling, Danvers, USA). IR Dyes 800 and 700 (Rockland Immunochemical Inc, Gilbertsville, USA) antibodies were used as secondary antibodies. Blots were reveled with Odyssey imaging system (LI-COR Biosciences, Lincoln, USA).
# For caspase 3 activity analysis culture cell supernatants containing degenerating and dead neurons, and cell medium were collected in parallel of adhesive neurons lysis. Culture cell supernatants were centrifugated 10 min at 15000 g at 4° C. Pellets were then resuspended in lysis buffer and caspase 3 activity was measured by using the Caspase 3 Assay kit reagents and protocol (Abcam, Cambridge, UK).
# [2] = WT neurons, 10 μM, vs Aβ42 treated WT neurons
compound,measurement,setting,value
"CC(C)C[C@H](NC(=O)[C@H](CC(N)=O)NC(=O)[C@H](CC(C)C)NC(=O)[C@@H](NC(=O)[C@@H](C)NC(=O)[C@@H]1CCCN1C(=O)[C@H](CCCNC(=N)N)NC(=O)[C@@H](CCCCN)NC(=O)[C@@H]1CCCN1C(=O)[C@H](CCCNC(=N)N)NC(=O)[C@@H](CCCNC(=N)N)NC(=O)[C@H](CCCNC(=N)N)NC(=O)[C@H](CCCNC(=N)N)NC(=O)[C@H](CCC(N)=O)NC(=O)[C@@H](CCCNC(=N)N)NC(=O)[C@H](CCCNC(=N)N)NC(=O)[C@H](CCCCN)NC(=O)[C@H](CCCCN)NC(=O)[C@H](N)CCCNC(=N)N)[C@@H](C)O)C(=O)N[C@H](Cc1ccccc1)C(N)=O [SEQ ID NO: 172, rKKRrQRRrRPkRPaTLNLf] (H-[dR]KKR[dR]QRR[dR]RP[dK]RP[dA]TLNL[dF]-NH2; N-terminus assumed)",CD3/CD28-induced TNF-α release,human whole blood,did reduce the CD3/CD28-induced TNF-α release in a dose-dependent manner
same,decrease of PARP cleavage,"[1]; 2 μM Aβ42, 5 μM pre-treatment",46.8%
same,decrease of PARP cleavage,"[1]; 2 μM Aβ42, 10 μM pre-treatment",80.2%
same,decrease of PARP cleavage,"[1]; 25 μM Aβ42, 5 μM pre-treatment",69%
same,decrease of PARP cleavage,"[1]; 25 μM Aβ42, 10 μM pre-treatment",80.6%
same,"efficiency to reduce apoptosis, 10 μM relative to 5 μM",[1]; Aβ42-induced apoptosis,1.7
same,decrease of caspase 3 activity,[1]; [2],78%
same,decrease of cleaved PARP expression level,[1]; [2],77%
same,reduction of cleaved caspase 3 expression level,[1]; [2],61%
